Experimental data as given in PubChem BioAssay (NCI).
Several values for one entry are separate records, joined by “and”; a condition that tells them apart may be missing. Identical values can stand only once.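 All cell lines were grown in 96-well plates and treated with compound for 48 hours. GI50 = concentration required for 50% inhibition of growth. The concentration for full growth arrest is given as TGI.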

System: MDA-MB-468 breast
Experiment: NCI tumour cell line growth inhibition, 48 h

Row | SMILES | GI50 | TGI
1 | CCN(CC)CCCNc1ccc(C)c2sc3ccccc3c(=O)c12 | 365 nM | 1270 nM
2 | Cc1cccc(NC(=O)c2sc3nc4c(cc3c2N)C(=O)CCC4)c1 | 80.7 nM | 2660 nM
3 | CCCCCOc1ccc(/C=N/Nc2cc(C)nc3ccc(Cl)cc23)cc1 | 1700 nM | 3370 nM
4 | CN[C@@H](C)C(=O)N[C@H]1CN(S(=O)(=O)c2cccc(S(=O)(=O)N3CC[C@H]4CC[C@@H](C(=O)NC(c5ccccc5)c5ccccc5)N4C(=O)[C@@H](NC(=O)[C@H](C)NC)C3)c2)CC[C@H]2CC[C@@H](C(=O)NC(c3ccccc3)c3ccccc3)N2C1=O | < 10 nM | 81.9 nM
5 | COc1ccc2sc3c(NCCCN)nc4ccccc4c3c(=O)c2c1 | 1560 nM | 3190 nM
6 | N#Cc1nc2c(S(=O)(=O)c3ccc(Cl)cc3)c(N)n(Nc3cccc(Cl)c3)c2nc1C#N | 7.06 nM | 195 nM
7 | Nc1nc2c(c3cnccc13)C(c1ccc(Cl)c(Cl)c1)Cc1cnccc1-2 (stereo unspecified) | 270 nM | 807 nM
8 | CCN(CC)Cc1cc(Nc2nc(NC3CCC(N(C)C)CC3)c3ccccc3n2)ccc1OC (stereo unspecified) | 1640 nM | 3160 nM
9 | CCN=c1sc2c(n1NC(=O)c1cc3ccc1CCc1ccc(cc1)CC3)C(=O)c1ccccc1C2=O | 719 nM | 1830 nM
10 | O=C1/C(=C/c2ccc(Cl)c(Cl)c2)CN(C(=O)CCN2CCC(=NO)CC2)C/C1=C\c1ccc(Cl)c(Cl)c1 | 898 nM | 2400 nM
11 | COc1ccc2c(c1)c(-c1nc(-c3c[nH]c4ncccc34)cs1)cn2CCCN1CCOCC1 | 2520 nM | 5250 nM
12 | O=C(OCc1ccc2c(Br)cc(Br)c(O)c2n1)c1cc2ccccc2[nH]1 | 419 nM | 1540 nM
13 | FC(F)(F)Oc1cccc(-c2cc(NCCCCCCNc3cc(-c4cccc(OC(F)(F)F)c4)nc4ccc(N5CCCC5)cc34)c3cc(N4CCCC4)ccc3n2)c1 | 1590 nM | 3210 nM
14 | COc1ccc(OC)c(/C=C/c2nc(=S)n(-c3ccc(Cl)cc3)[nH]2)c1 | 3510 nM | 55400 nM
15 | CCN1C(=S)N(CC)C2C1NC(=S)N2/N=C/C=C/c1ccccc1OC (stereo unspecified) | 347 nM | 31400 nM
16 | C[C@]12CC[C@H]3[C@@H](CCC4=CC(=O)CC[C@@]43C)[C@@H]1CC[C@@H]2c1csc(N)n1 | 1170 nM | 18500 nM
17 | COc1cc2c(cc1Nc1nc(N3CCc4ccccc43)c3cc[nH]c3n1)N(C(=O)CN(C)C)CC2 | 1300 nM | 2830 nM
18 | CC(C)(CO)CNC(=O)c1ccc2[nH]c(O)c(N=Nc3ccc(S(N)(=O)=O)cc3)c2c1 | > 17900 nM | > 25000 nM
19 | Cn1nccc1Nc1nccc(-c2ccn([C@H](CO)c3ccc(Cl)c(F)c3)c(=O)c2)n1 | 18800 nM | 57900 nM
20 | Cc1c(C(=N)C(C#N)C#N)c(=N)oc2c1ccc1ccccc12 | 13500 nM | 46000 nM
21 | CNC(=O)c1ncccc1Nc1nc(Nc2cc3c(cc2OC)CCCN3C(=O)CN(C)C)nc2[nH]ccc12 | 435 nM | 2470 nM
22 | Cc1nn(-c2ccc(Cl)cc2)c2ncnc(N/N=C/c3ccccc3O)c12 | 1710 nM and 1030 nM | 6460 nM and 7680 nM
23 | O=C1C=C[C@H](O)[C@@]2(CO)O[C@@H]12 | 4610 nM | 20000 nM
24 | Cc1ccc2c(-c3ccnc(Nc4ccc5c(c4)OCCO5)n3)c(-c3ccc(C(F)(F)F)cc3)nn2n1 | 5190 nM | > 25000 nM
25 | CCN(CC)CCCC(C)NCC(=O)NC(c1ccc2c(c1)OCO2)c1cc(Cl)c2cccnc2c1O (stereo unspecified) | 1870 nM | 4500 nM
26 | CCn1cc(C(=O)O)c(=O)c2cc(F)c(N3CCN(S(=O)(=O)c4cccc5ccccc45)CC3)cc21 | 2520 nM | 7320 nM

Row | SMILES | GI50 | TGI
27 | Fc1cccc(Cl)c1/C=N/Nc1nc(N/N=C/c2c(F)cccc2Cl)nc(N2CCCCC2)n1 | 1860 nM | 6890 nM
28 | c1ccc(-c2[nH]ncc2-c2ccnc(-c3ccc(OCCn4ccnc4)cc3)c2)nc1 | 12200 nM | > 25000 nM
29 | N#CC1c2ccccc2C=CN1C(=O)CCCl (stereo unspecified) | 2100 nM | 5740 nM
30 | COc1cc2c(N3CCN(C(=O)Nc4ccc(OC(C)C)cc4)CC3)ncnc2cc1OCCCN1CCCCC1 | 14100 nM | 42900 nM
31 | O=C(/C=C/C12c3ccccc3C(c3ccccc31)C1C(=O)NC(=O)C12)c1ccccn1 (stereo unspecified) | 1710 nM | 4030 nM
32 | OC1(c2ccc(Cl)c(C(F)(F)F)c2)CCN(CCCC(c2ccc(F)cc2)c2ccc(F)cc2)CC1 | 707 nM | 1370 nM
33 | CC(=O)O[C@H]1C(=O)[C@@]2(C)C([C@H](OC(=O)c3ccccc3)[C@]3(O)C[C@H](OC(=O)[C@H](O)[C@@H](NC(=O)c4ccccc4)c4ccccc4)C(C)=C1C3(C)C)[C@]1(OC(C)=O)CO[C@@H]1C[C@@H]2O (stereo partly specified) | < 5 nM | 54.5 nM
34 | CC1=C(C(=O)Nc2ccccc2)C(c2ccc(N(C)C)cc2)C(C(=O)Nc2ccccc2)=C(C)N1 | 43900 nM | > 100000 nM
35 | Cn1c([N+](=O)[O-])cnc1C=C1C(=O)c2ccccc2C1=O | 7350 nM | 33100 nM
36 | COc1ccc2c(N)ncc(C#Cc3cc(C(=O)Nc4ccc(CN5CCN(C)CC5)c(C(F)(F)F)c4)cnc3C)c2c1 | 2460 nM | 8940 nM
37 | COC(=O)OC1C(O[C@H]2C[C@H]3[C@@H]4CC=C5C[C@@H](O)CC[C@]5(C)[C@H]4CC[C@]3(C)[C@H]2[C@H](C)C(=O)CCC(C)C)OCC(O)C1OC1OCC(O)C(O)C1OC(=O)c1ccc(OC)cc1 (stereo partly specified) | 111 nM | 1700 nM
38 | Cc1ccc(O)cc1Nc1ccnc2ccc(S(C)(=O)=O)cc12 | 2040 nM | 9370 nM
39 | CC1(C)N=C(N)N=C(N)N1c1ccc(CCC(=O)Nc2ccc(S(=O)(=O)F)cc2)cc1 | 1010 nM | > 100000 nM
40 | CC(=O)ON1CCCC(P(=O)(OCOC(=O)C(C)(C)C)OCOC(=O)C(C)(C)C)C1=O (stereo unspecified) | 1010 nM | 5920 nM
41 | CCCCCCCCCCCC[N+]1(CCCCCCCCCCCC)CCCC(C)C1 (stereo unspecified) | 68.9 nM | 388 nM
42 | CN(C)CCCC1(c2ccc(F)cc2)OCc2cc(-c3cccc4[nH]ccc34)ccc21 (stereo unspecified) | 1790 nM | 3430 nM
43 | CCN1C(=O)N(CC)C2SC(N/N=C/c3ccc(OC)cc3)=NC21 (stereo unspecified) | 314 nM | 
44 | O=C(Nc1cccc(-n2cc(-c3ccncc3)c(-c3cc(O)cc(Cl)c3)n2)c1)c1ccc(N2CCOCC2)c(C(F)(F)F)c1 | 3420 nM | 43300 nM
45 | O=C1NC(=N[C@@H](CO)c2ccccc2)S/C1=C\c1ccc2ncccc2c1 | 5780 nM | > 25000 nM
46 | O=C1c2cccc(Oc3ccccc3)c2C(=O)c2cccc(Oc3ccccc3)c21 | > 100000 nM | > 100000 nM
47 | COc1ccc(OC)c(NCC(=O)n2nc(/C=C\c3ccc(O)c(OC)c3)cc2/C=C\c2ccc(O)c(OC)c2)c1 | 2850 nM | 23300 nM
48 | CCNc1nc(O)c(/C=C2\C=Nc3ncccc32)s1 | 1990 nM | 4270 nM
49 | N#CC1(c2ccc(NC(=O)c3cccnc3NCc3ccncc3)cc2)CCCC1 | 7040 nM | 51800 nM
50 | Nc1ncnc2c1N=C(c1ccc3c(c1)OCO3)CC(c1ccc(Cl)cc1)N2 (stereo unspecified) | 10100 nM | 54900 nM
51 | CNCc1cccc2c1OCCOCCOCCN(C)S(=O)(=O)c1ccc(cc1)-c1cnc(N)c(n1)C(=O)N2 | 2620 nM | 14600 nM
